Data set [1] relates to 4T1 cells. The experiment in a line: Cytotoxicity assay (CCK8), phototoxicity and dark toxicity. Format: cell-based, murine. Conditions: for Dark toxicity: cell viability without light: no light, CCK8, n = 5. The procedure: 4T1 cells were seeded in a 96-well plate at a density of 10,000 cells/well, and each well was cultured overnight with 200 μL of DMEM medium containing 10% FBS. On the second day, the original medium was discarded and replaced with DMEM medium containing different concentrations of SC or RSP (containing 0.05% CEL). After 4 h of incubation, the cells were incubated with fresh medium and irradiated with a xenon lamp. Then 10 μL of CCK8 was added to each well, and the incubation continued for 1 h. After the incubation, the absorbance value at 450 nm was measured with enzyme labels (Synergy HT, BioTek, USA). At the same time, a blank control was set to determine cell viability. The dark toxicity test method was similar, except that no light was applied to the cells.

The test system of data set [2] is 4T1 cells. Nature of the data set: Subcellular co-localization with lysosomes (confocal). The settings on record: 1 μM, 4 h incubation, Lysotracker, n = 3. Format: cell-based, murine. On the procedure: Subcellular colocalization pictures were taken under a laser confocal microscope (Nikon A1R high-speed confocal laser microscope, Nikon Corporation, Japan). 4T1 cells were cultured in 35 mm cell culture dishes at a density of 20,000 cells/dish, and cultured overnight. After 24 h, the medium was replaced with DMEM medium (containing 0.05% CEL) containing 1 μM RSP or SC. After 4 h of incubation, the plates were washed with PBS and then stained with DMEM medium containing Lysotracker for 30 min and washed again with PBS. Then fixed and counterstained with DAPI. The light was always avoided during the entire operation. The dynamic change of fluorescence on any straight line passing through the whole cell was analyzed by Image J. The result was plot to qualitatively analyze the co-localization situation of lysosome and phthalocyanine. In order to more completely reflect the co-localization of lysosomes and phthalocyanines, the Pearson co-localization coefficient was analyzed on the fluorescence fields of cells obtained from three photographs, and the difference in lysosomal localization of RSP and SC in the cells was quantitatively analyzed.

Data set [3] can be described thus: Singlet oxygen yield detection with DPBF. The settings on record: physiological saline containing 1% CEL; for Slope of DPBF bleaching (singlet oxygen yield): laser 610 nm, 225 mW/cm^2, DPBF absorbance at 414 nm. Format: physicochemical. The source says: Generation of singlet oxygen was detected chemically using the disodium salt of 1,3-diphenylisobenzofuran (DPBF) as a singlet oxygen sensor. DPBF is bleached by singlet oxygen to its corresponding endoperoxide. The reaction was monitored spectrophotometrically by recording the decrease in optical density at 414 nm. The bleaching rate of DPBF can also be used as a method to compare the yield of singlet oxygen. In the actual measurement of singlet oxygen yield, a certain amount of DPBF ethanol solution and test solution are mixed together in a dark room. A rotor is added to the cuvette, and the laser is irradiated for different times while stirring. The absorption spectra of the mixed solution was tested after different time of irradiation with an ultraviolet spectrophotometer, then the change of the absorption value of DPBF at 414 nm was obtained.

The next data set deals with 4T1 tumor model. Nature of the data set: In vivo photodynamic activity. The arrangement: species or system Balb/c mice. The settings on record: for Tumor volume without light versus PBS and Light groups: no laser. The procedure:
(§1) Balb/c female mice aged 6 to 8 weeks were purchased from Beijing Weitong Lihua Laboratory Animal Technology. All animal experiments were performed under protocols approved by the Institutional Animal Care and Use Committee (IACUC) of Peking University. In situ breast cancer tumor models were established by injecting 2 * 10^7 4T1-luci tumor cells under the fourth pair of mammary glands in mice. Treatment was initiated approximately 6 days after inoculation when the tumor volume grew to approximately 100 mm^3.
(§2) PDT treatment was performed on the 7th day when the 4T1 tumor model was established in mice, and the average initial tumor volume was 100 mm^3. The test groups were as follows: Group 1: PBS; Group 2: Light; Group 3: SC; Group 4: RSP; Group 5: SC + Light, Group 6: RSP + Light. First, 200 μl of RSP (2 mg/kg), SC (2 mg/kg), and PBS were injected intravenously. 4 h after the injection, the tumor area was irradiated with 671 nm laser (0.1 W/cm^2) for 6 min with a total laser intensity of 36 J/cm^2 and laser treatment was performed on groups 2, 5, and 6. After PDT treatment, the tumor size was measured every day using electronic vernier calipers until 12 days. The maximum width (X) and length (Y) of the tumor were measured, and the following formula was used to calculate the tumor volume: V = (X^2Y)/2. From the first day of treatment, the weight change of each group of mice was recorded until the end of the treatment. Mice in each group were selected randomly, and excised tumors for pathological analysis. In order to investigate the biological safety of this PDT method, after the treatment, the main organs (heart, liver, spleen, lung, kidney) of each group of differently treated mice were dissected, and H&E section staining was performed to evaluate their Pathological changes.

The nature of data set [4]: Biological safety in the PDT study (body weight, H&E of main organs). The format is in vivo, Balb/c mice. The settings on record: for Mouse body weight change: all treatment groups with or without light, 2 mg/kg i.v., n = 5. On the procedure:
as §2

In data set [5] the test system is 4T1 cells. The experiment in a line: Apoptosis/necrosis by flow cytometry after TPDT. The settings on record: 500 nM, 4 h incubation, with light. Format: cell-based, murine. The procedure:
The apoptosis rate and necrosis rate of the cells were detected on the flow cytometer according to the operating procedure of the apoptosis detection kit. 4T1 cells were seeded in a six-well plate at a density of 5 * 10^5 cells/well overnight. On the second day, the medium was changed to DMEM medium containing 500 nM RSP/SC and 1% CEL, and the cells were incubated for 4 h. Then the medium was replaced with fresh DMEM. The cells were applied light/ no light, and then digested.
In general terms: Flow cytometry measures light scatter and fluorescence of single cells or particles in a stream.

The nature of data set [6]: Photostability under laser irradiation. Conditions: 4 mins of laser irradiation, 225 mW/cm^2, UV-vis absorption. Format: physicochemical. On the procedure:
In order to better simulate the situation of photosensitive molecules in practical applications, the singlet oxygen yield of RSP in physiological saline containing 1% CEL was measured (Fig. 2c). The slope of RSP and SC was 0.06481 and 0.07165 respectively (Supplementary Fig. 6). […] We further determined the photostability of RSP. […] The axial modification of RSP helped to improve the stability of the phthalocyanine parent ring when singlet oxygen was generated, so that it was less prone to degrade.

A short description of data set [7]: Solubility and aggregation state (absorption spectra). Format: physicochemical. The source says:
Therefore, we dissolved RSP in physiological saline containing 1% CEL, DMEM medium containing 0.05% CEL, and DMF (as a control) to measure its absorption and fluorescence spectrum. […] RSP had the characteristics of not being aggregated in physiological saline and cell culture media, which provides a basis for further investigation of its phototoxicity.

Data set [8] can be described thus: Blood circulation dynamics and organ distribution. The format is in vivo, Balb/c mice. The procedure: The ideal targeted photosensitizer should be able to quickly accumulate at the tumor site and metabolize from normal organs after injection. […] After 24 h, 48 h, and 120 h of RSP injection, the major organs of the mice were dissected and their fluorescence was quantified.
In order to investigate the blood clearance rate of RSP, healthy male Balb/c mice were selected as experimental subjects, and blood was collected from the orbit to detect the drug concentration in the body at different time points. Fluorescence labeled Organism Bioimaging Instrument (FOBI, South Korea) was used to measure the relative concentration of phthalocyanine in mouse plasma. Mice were injected with RSP through the tail vein at a dose of 2 mg/kg. At different time intervals, blood samples were collected from the orbits of mice with capillary tubes coated with heparin, placed on ice, and centrifugated to separate blood cells (3000 g, 10 min). The resulting plasma samples were analyzed for phthalocyanine concentration.

The test system of the next data set is 4T1 tumor. Nature of the data set: In vivo fluorescence imaging of tumor targeting. The arrangement: species or system Balb/c mice. On the procedure: as §1
For in vivo fluorescence imaging, RSP or SC dissolved in physiological saline (containing 1% CEL) was injected intravenously at a dose of 2 mg/kg into tumor-bearing mice (both in situ and subcutaneous models). Then IVIS Spectrum In Vivo Imaging System (PerkinElmer) was utilized to collect the fluorescence signals of RSP (660 nm/710 nm) in subcutaneous models at different times after the injection. The small animal fluorescence imaging system was used for in situ tumor-bearing mice imaging, taking pictures, and recording. The excitation wavelength was 660 nm, and the fluorescence signal was collected with a 700 nm filter. Then, the FOBI software was used to process the data to analyze the enrichment of phthalocyanines in the tumors of the mice after different injection times. The mice after 24 h fluorescence imaging were sacrificed, and the hearts, livers, spleens, lungs, kidneys, and tumors were collected for analysis of fluorescence semiquantitative biodistribution.

[9] abbreviates: subcutaneous tumor model, 2 mg/kg tail vein, n = 3.
The mark [10] stands for this setting: RSP + light (RSPL), tumor sections, n = 3.

Turning to “2[4-(3-carboxypropyl)phenoxy]silicon phthalocyanine [SC]”, in the data set on 4T1 cells [1], the “Dark toxicity: cell viability without light” value was “did no significantly decreased”. The “Lysosomal colocalization index (Pearson co-localization coefficient)” value in the data set on 4T1 cells [2] amounted to 0.38. Also, the “Slope of DPBF bleaching (singlet oxygen yield)” value in data set [3] turned out to be 0.07165. Also, the “Tumor volume without light versus PBS and Light groups” value in the data set with 4T1 tumor model (2 mg/kg i.v., n = 5) is on record as “no significant difference”. The “Inhibition of tumor cell proliferation with light, in words” value with 4T1 tumor model (SC + light, 2 mg/kg i.v., 671 nm laser 36 J/cm^2, tumor weight, n = 5) is recorded as “not significantly inhibited”. Also, in [4], the “Mouse body weight change” value is recorded as “no significant changes”.
As to `N=C(N)NCCC[C@@H]1NC(=O)[C@H](CCCCNC(=O)CCc2ccc(O[Si]3(Oc4ccc(CCC(=O)O)cc4)n4c5c6ccccc6c4N=C4N=C(N=c6c7ccccc7c(n63)=NC3=NC(=N5)c5ccccc53)c3ccccc34)cc2)NC(=O)[C@@H](Cc2ccc(O)cc2)NC(=O)[C@H](CC(=O)O)NC(=O)CNC1=O` (stereo partly shown) [RSP, cRGDyK modified targeting silicon phthalocyanine], the plasma half-life (t1/2α) is 45 min. The “Dark toxicity: cell viability without light” value with 4T1 cells [1] was “did no significantly decreased”. In addition, in the data set on 4T1 cells [1] (λ > 610 nm, 48 J/cm^2, 0 to 2 μM), the “Killing effect upon exposure to light compared with SC” value is listed as “lower killing effect”. Moreover, the “Increase of apoptotic rate compared with SC” value in the data set with 4T1 cells [5] turned out to be 9.73%. In the data set with 4T1 cells [2], the “Lysosomal colocalization index (Pearson co-localization coefficient)” value is on record as 0.78. In addition, in data set [3], the “Decrease of singlet oxygen yield relative to SC” value was 10% and the “Slope of DPBF bleaching (singlet oxygen yield)” value came out at 0.06481. Besides, the “Absorbance at maximum absorption wavelength remaining after irradiation (photostability)” value in [6] is “about 80%”. For the same molecule, the “Solubility in aqueous solutions with Cremophor EL” value in data set [7] (aqueous solutions with 1 % Cremophor EL (CEL)) is listed as “good solubility”. Besides, the “Aggregation state from absorption spectra” value in data set [7] (physiological saline containing 1% CEL and DMEM medium containing 0.05% CEL, compared with DMF) is “remained monomer”. Moreover, the “Solubility in pure water” value in data set [7] (pure water) is recorded as “limited solubility”. The “Elimination half-time (t1/2β)” value in [8] (healthy male Balb/c mice, 2 mg/kg tail vein, plasma fluorescence (FOBI)) was 463.02 min. The “Fluorescence of main organs 120 h after injection” value in data set [8] (mice, 2 mg/kg intravenous, 120 h, n = 3) is on record as “no obvious fluorescent signal can be detected”. Further, the “Fraction metabolized in 48 h” value in [8] (mice, 2 mg/kg intravenous, fluorescence of main organs, n = 3) is reported as “more than 90%”. Further, the “Fluorescence signal of excised tumor, relative to SC (semiquantitative)” value in the data set on 4T1 tumor (organs and tumors dissected 24 h after injection, 2 mg/kg, n = 3) was “four folds higher than that of SC”. For the same molecule, the “Fluorescence intensity in orthotopic mouse tumors, folds of control” value in the data set on 4T1 tumor (orthotopic mouse tumors, as worded in the introduction) is reported as 4 folds. Besides, in the data set on 4T1 tumor (setting [9]), the “Onset of tumor accumulation after injection” value is on record as at most 0.5 h and the “Time of peak tumor fluorescence intensity after injection” value was found to be 6 h. Also, the “Fluorescence intensity of tumor site in vivo, folds of SC” value in the data set with 4T1 tumor (subcutaneous tumor model, 2 mg/kg, 24 h after injection, n = 3) is on record as 2.5 folds. The “Tumor volume without light versus PBS and Light groups” value in the data set with 4T1 tumor model (2 mg/kg i.v., n = 5) is listed as “no significant difference”. Moreover, in the data set on 4T1 tumor model (setting [10]), the “Apoptosis in tumor tissue (TUNEL) relative to SCL group” value is “twice that of SCL group”, the “Ki67 proliferation signal as % of PBS control group” value turned out to be 10% and the “Ki67 proliferation signal as fraction of SCL group” value is 1/4. Moreover, in data set [4] (after treatment, RSP injection and laser irradiation), the “H&E pathology of heart, liver, spleen, lung and kidney” value was “no obvious pathological phenomena”. For the same molecule, the “Mouse body weight change” value in [4] is “no significant changes”.

The record behind these values is publication PMC8885659, “Asymmetric, amphiphilic RGD conjugated phthalocyanine for targeted photodynamic therapy of triple negative breast cancer” (Signal Transduction and Targeted Therapy, 2022).
